Results from patent US12016874B2, “Methods and compositions for treating carbapenem-resistant klebsiella pneumoniae infections” (City University of Hong Kong, priority 2022, dated 2024).
Values after ≈ are worked out from the molar mass of the structure shown. Like-named read-outs stand apart in the source and are kept apart here.

Tests used:
14WZ-43 = test: MIC determination according to CLSI guidelines; assay type: cell-based, K. pneumoniae; conditions: Klebsiella pneumoniae, drug alone
Protocol: (§1) Bacterial strains grown on MH agar plates were resuspended in sterilized 0.85% sodium chloride solution. […] All tested culture media were finally cultured at 37° C. for 16 hours. E. coli ATCC25922 and K. pneumoniae MGH78578 in Table 1 were used as reference control bacteria.
(§2) See Table 2 and Table 2-1 below for details.

14WZ-44 = test: MIC determination according to CLSI guidelines; assay type: cell-based, K. pneumoniae; conditions: Klebsiella pneumoniae; 14WZ-44 (CRKP); drug alone
Protocol: as §1, §2

14WZ-45 = test: MIC determination according to CLSI guidelines; assay type: cell-based, K. pneumoniae; conditions: Klebsiella pneumoniae, drug alone
Protocol: as §1, §2

14WZ-51 = test: MIC determination according to CLSI guidelines; assay type: cell-based, K. pneumoniae; conditions: Klebsiella pneumoniae, drug alone
Protocol: as §1, §2

14WZ-52 = test: MIC determination according to CLSI guidelines; assay type: cell-based, K. pneumoniae; conditions: Klebsiella pneumoniae, drug alone
Protocol: as §1, §2

15WZ-68 = test: MIC determination according to CLSI guidelines; assay type: cell-based, K. pneumoniae; conditions: Klebsiella pneumoniae, drug alone
Protocol: as §1, §2

15WZ-88 = test: MIC determination according to CLSI guidelines; assay type: cell-based, K. pneumoniae; conditions: Klebsiella pneumoniae, drug alone
Protocol: as §1, §2

16WZ-134 = test: MIC determination according to CLSI guidelines; assay type: cell-based, K. pneumoniae; conditions: Klebsiella pneumoniae, drug alone
Protocol: as §1, §2

16ZR-10 = test: MIC determination according to CLSI guidelines; assay type: cell-based, K. pneumoniae; conditions: Klebsiella pneumoniae, drug alone
Protocol: as §1, §2

16ZR-33 = test: MIC determination according to CLSI guidelines; assay type: cell-based, K. pneumoniae; conditions: Klebsiella pneumoniae, drug alone
Protocol: as §1, §2

16ZR-58 = test: MIC determination according to CLSI guidelines; assay type: cell-based, K. pneumoniae; conditions: Klebsiella pneumoniae, drug alone
Protocol: as §1, §2

16ZR-93 = test: MIC determination according to CLSI guidelines; assay type: cell-based, K. pneumoniae; conditions: Klebsiella pneumoniae, drug alone
Protocol: as §1, §2

17ZR-31 = test: MIC determination according to CLSI guidelines; assay type: cell-based, K. pneumoniae; conditions: Klebsiella pneumoniae, drug alone
Protocol: as §1, §2

17ZR-61 = test: MIC determination according to CLSI guidelines; assay type: cell-based, K. pneumoniae; conditions: Klebsiella pneumoniae, drug alone
Protocol: as §1, §2

17ZR-63 = test: MIC determination according to CLSI guidelines; assay type: cell-based, K. pneumoniae; conditions: Klebsiella pneumoniae, drug alone
Protocol: as §1, §2

17ZR-75 = test: MIC determination according to CLSI guidelines; assay type: cell-based, K. pneumoniae; conditions: Klebsiella pneumoniae, drug alone
Protocol: as §1, §2

CR-HvKP 1 [1] = test: MIC determination according to CLSI guidelines; assay type: cell-based, K. pneumoniae; conditions: Klebsiella pneumoniae, drug alone
Protocol: as §1, §2

CR-HvKP 2 = test: MIC determination according to CLSI guidelines; assay type: cell-based, K. pneumoniae; conditions: Klebsiella pneumoniae, drug alone
Protocol: as §1, §2

CR-HvKP 3 = test: MIC determination according to CLSI guidelines; assay type: cell-based, K. pneumoniae; conditions: Klebsiella pneumoniae, drug alone
Protocol: as §1, §2

CR-HvKP 5 = test: MIC determination according to CLSI guidelines; assay type: cell-based, K. pneumoniae; conditions: Klebsiella pneumoniae, drug alone
Protocol: as §1, §2

E. coli ATCC25922 = test: MIC determination according to CLSI guidelines; assay type: cell-based; conditions: Escherichia coli, drug alone
Protocol: as §1, §2

K. pneumoniae MGH78578 = test: MIC determination according to CLSI guidelines; assay type: cell-based; conditions: Klebsiella pneumoniae, drug alone
Protocol: as §1, §2

E. coli = test: Screening of FDA-approved drug library; assay type: cell-based; conditions: drug library screen
P. aeruginosa = test: Screening of FDA-approved drug library; assay type: cell-based; conditions: drug library screen
K. pneumoniae = test: Screening of FDA-approved drug library; assay type: cell-based; conditions: drug library screen
CR-HvKP 1 [2] = conditions: for Viability (%): CR-HvKP 1 infected ICR mice; for mortality rate of mice: oral gavage every 12 hours
Protocol: The ICR mice were injected with 3×10^7 CFU of CR-HvKP 1 intraperitoneally to create sepsis infection models.

CR-HvKP 1 [3] = test: microbe, parasite or virus in culture; assay type: cell-based, K. pneumoniae; conditions: Klebsiella pneumoniae, read-out: MIC after serial passage with incremental drug concentrations
Protocol: The principle of this experiment is that sub-inhibitory concentrations of antibiotics will induce drug-resistant mutations of bacteria.
Materials and methods: CR-HvKP 1 was selected as the representative strain. […] After 24 hours of culture, the culture possibly containing drug-resistant mutant bacteria was diluted 1:100 into fresh LB medium containing 2-fold concentration of drugs. This continuous transfer was repeated for six generations, i.e. the experiment was conducted for six days (the concentration on the second day was twice that on the first day, with daily increment).

[4] = target: T1, K. pneumoniae RNA polymerase (Klebsiella pneumoniae subsp. pneumoniae, UniProt A6TGP0+A6TGP1); test: ITC assay; assay type: binding; conditions: 25° C.
T1 construct: made in house; host or cells: E. coli BL21(DE3)
Source text: We successfully co-expressed the subunits of K. pneumoniae RNAp to prepare the required core enzyme by a dual plasmids expression system, pACYC-Duet and pET-Duet. The method is briefly described as follows:
Recombinant plasmids containing different subunits of RNAP (rpoA, rpoB, rpoC, rpoD, rpoZ) were constructed using the Gibson assembly method. First, all the required fragments were obtained by PCR amplification from the K. pneumoniae MGH78578 genome and two Duet plasmids, respectively. All fragments, Gibson Assembly Master Mix (NEB, #E2611S) and deionized water were then mixed and incubated at 50° C. for 60 minutes. The recombinant plasmids were transformed into E. coli DH5α by heat shock method. After verification via sequencing, the recombinant plasmids were then transformed into E. coli BL21(DE3). Plasmids pACYC Duet rpoA-rpoZ-Amp (encoding […]) and pET Duet rpoB-rpoC-Kana (encoding β and β′ subunits) were transformed together into E. coli BL21 to prepare RNA core polymerase by in vivo assembly. The σ factor σ subunit was obtained by overexpression of E. coli BL21 containing the plasmid pET-Duet-rpoD-Kana alone. The recombinant bacteria were first cultured in LB agar containing 50 μg/mL of kanamycin and 100 μg/mL of ampicillin and then inoculated into LB broth containing the same concentration of antibiotics at 37° C., 250 rpm. After the bacterial turbidity reached an OD600 of 0.6, 0.5 mM IPTG was added and cultured at 16° C., 200 rpm for 16 hours. Cells were harvested by centrifugation (5000 rpm, 20 minutes at 4° C.). The protein was then purified by affinity chromatography. To further obtain bacterial RNAp holoenzyme, RNAp core enzyme was incubated with sigma subunits at a molar ratio of 1:1 at 37° C. for 15 minutes and then used for subsequent ITC assays.
The test was performed at 25° C. using a Malvern MicroCal PEAQ-ITC automatic ultrasensitive isothermal titration calorimeter (MicroCal (Malvern Instruments), Malvern, UK). […] The solution was stirred at 750 rpm. MicroCal PEAQ-ITC analysis software was used to fit the data to a one site binding model.

CR-HvKP 1 [5] = test: String test on sheep blood agar; assay type: cell-based, K. pneumoniae; conditions: drug alone
Protocol: 1. A series of tests were performed according to the following process. CR-HvKP 1 was inoculated onto the agar plate containing 5% sheep blood and different drugs and cultured overnight at 37° C. The series test refers to a test in which viscous strings greater than 5 mm in length are formed when a single colony is stretched with a standard bacteriological inoculating loop, which can be considered a virulent strain of a high-viscosity phenotype.

CR-HvKP 1 [6] = test: Mucoviscosity assay; assay type: cell-based, K. pneumoniae; conditions: drug alone, OD600 of supernatant
Protocol: 2. Mucoviscosity assay: The overnight culture of CR-HvKP 1 was re-inoculated into fresh LB broth to produce a bacterial broth with an OD600 of 0.3. Different drugs were then added and cultured with shaking at 37° C. for 6 hours. The culture was then diluted to an OD600 of 1.0 and centrifuged at 1,000×g for 2 minutes before the supernatant was obtained for OD600 measurement.

rmpA2 = test: Virulence gene expression by qRT-PCR; assay type: cell-based, K. pneumoniae; conditions: drug alone
CR-HvKP 1 [7] = conditions: 20 μg/mL zidovudine
HepG2 cells = test: MTT experiment; conditions: MTT assay

T1 sequence (A6TGP1 whole entry): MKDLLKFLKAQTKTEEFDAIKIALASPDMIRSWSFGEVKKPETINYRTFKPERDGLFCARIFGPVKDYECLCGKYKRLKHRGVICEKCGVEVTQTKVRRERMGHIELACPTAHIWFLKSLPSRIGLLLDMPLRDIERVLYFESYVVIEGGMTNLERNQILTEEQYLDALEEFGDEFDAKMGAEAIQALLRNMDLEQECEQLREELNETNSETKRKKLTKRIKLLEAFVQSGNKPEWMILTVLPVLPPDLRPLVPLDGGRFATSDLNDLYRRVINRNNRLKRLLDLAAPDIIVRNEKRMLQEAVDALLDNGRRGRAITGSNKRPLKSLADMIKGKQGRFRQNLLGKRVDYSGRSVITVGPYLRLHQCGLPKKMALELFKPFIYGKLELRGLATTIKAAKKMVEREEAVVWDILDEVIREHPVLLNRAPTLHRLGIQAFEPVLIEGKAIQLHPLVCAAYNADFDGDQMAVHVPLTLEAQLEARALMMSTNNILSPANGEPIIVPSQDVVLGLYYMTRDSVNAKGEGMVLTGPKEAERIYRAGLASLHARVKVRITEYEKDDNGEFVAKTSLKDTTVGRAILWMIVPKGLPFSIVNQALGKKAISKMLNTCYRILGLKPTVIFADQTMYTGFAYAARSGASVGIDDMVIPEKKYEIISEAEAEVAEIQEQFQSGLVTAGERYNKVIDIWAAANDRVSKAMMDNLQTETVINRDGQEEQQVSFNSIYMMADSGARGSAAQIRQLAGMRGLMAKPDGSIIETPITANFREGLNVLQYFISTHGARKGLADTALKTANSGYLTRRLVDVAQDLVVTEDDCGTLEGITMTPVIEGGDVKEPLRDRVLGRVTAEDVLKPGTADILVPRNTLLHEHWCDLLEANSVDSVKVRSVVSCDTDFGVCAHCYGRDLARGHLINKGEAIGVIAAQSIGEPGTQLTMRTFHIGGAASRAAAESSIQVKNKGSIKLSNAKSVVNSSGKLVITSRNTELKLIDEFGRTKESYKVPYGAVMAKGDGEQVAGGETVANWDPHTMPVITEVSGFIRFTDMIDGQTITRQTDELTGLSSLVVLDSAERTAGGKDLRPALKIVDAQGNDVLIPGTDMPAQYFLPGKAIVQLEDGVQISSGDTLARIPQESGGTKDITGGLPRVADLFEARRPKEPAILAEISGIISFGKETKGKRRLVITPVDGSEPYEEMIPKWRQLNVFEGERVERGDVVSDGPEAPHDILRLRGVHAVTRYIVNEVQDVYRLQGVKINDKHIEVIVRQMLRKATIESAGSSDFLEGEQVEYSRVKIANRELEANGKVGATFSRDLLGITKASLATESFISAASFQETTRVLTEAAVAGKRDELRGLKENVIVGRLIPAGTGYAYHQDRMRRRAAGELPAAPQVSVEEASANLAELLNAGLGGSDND
T1 sequence (A6TGP0 whole entry): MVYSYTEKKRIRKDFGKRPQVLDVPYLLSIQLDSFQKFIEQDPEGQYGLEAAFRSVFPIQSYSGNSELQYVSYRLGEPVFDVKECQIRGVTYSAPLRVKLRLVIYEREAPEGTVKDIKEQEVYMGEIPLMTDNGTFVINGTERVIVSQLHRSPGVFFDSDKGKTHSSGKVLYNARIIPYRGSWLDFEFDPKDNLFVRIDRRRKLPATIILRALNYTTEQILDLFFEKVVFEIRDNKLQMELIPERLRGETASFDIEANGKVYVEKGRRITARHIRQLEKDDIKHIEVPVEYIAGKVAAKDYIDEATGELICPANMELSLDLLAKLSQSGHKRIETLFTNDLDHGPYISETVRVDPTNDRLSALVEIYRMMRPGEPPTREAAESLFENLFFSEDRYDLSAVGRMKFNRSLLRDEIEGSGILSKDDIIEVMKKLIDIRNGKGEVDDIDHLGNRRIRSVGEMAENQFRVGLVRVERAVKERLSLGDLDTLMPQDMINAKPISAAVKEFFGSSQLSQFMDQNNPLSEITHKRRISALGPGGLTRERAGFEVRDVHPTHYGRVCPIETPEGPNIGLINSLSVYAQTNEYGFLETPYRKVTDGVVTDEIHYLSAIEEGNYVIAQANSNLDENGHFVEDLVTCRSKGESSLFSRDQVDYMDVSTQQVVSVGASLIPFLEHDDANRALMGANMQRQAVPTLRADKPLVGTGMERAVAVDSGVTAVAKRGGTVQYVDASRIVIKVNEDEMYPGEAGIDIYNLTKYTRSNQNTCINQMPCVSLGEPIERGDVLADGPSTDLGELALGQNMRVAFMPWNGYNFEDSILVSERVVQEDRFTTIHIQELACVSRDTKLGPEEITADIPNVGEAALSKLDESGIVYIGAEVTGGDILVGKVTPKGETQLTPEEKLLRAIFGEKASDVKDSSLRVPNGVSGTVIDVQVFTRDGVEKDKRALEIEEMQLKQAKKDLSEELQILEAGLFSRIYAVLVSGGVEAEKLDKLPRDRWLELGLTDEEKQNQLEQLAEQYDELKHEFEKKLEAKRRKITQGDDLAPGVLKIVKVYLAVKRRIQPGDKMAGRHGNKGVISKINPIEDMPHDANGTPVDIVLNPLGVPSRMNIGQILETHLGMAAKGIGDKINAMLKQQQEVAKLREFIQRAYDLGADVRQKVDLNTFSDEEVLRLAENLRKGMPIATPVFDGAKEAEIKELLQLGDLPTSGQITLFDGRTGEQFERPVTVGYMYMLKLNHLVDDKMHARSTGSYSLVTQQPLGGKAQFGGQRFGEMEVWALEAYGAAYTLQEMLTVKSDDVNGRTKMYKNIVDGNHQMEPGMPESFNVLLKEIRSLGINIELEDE
T1 sequence (A6TEU8 whole entry, further chain): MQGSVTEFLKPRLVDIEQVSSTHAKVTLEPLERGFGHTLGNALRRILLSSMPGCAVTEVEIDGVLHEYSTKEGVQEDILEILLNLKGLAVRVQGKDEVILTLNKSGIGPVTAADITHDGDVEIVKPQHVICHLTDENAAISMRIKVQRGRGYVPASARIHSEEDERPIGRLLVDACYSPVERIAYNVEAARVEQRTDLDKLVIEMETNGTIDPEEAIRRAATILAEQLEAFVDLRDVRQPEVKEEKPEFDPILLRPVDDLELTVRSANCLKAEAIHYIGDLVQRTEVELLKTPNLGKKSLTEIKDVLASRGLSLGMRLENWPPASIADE
Protocol for red blood cells (RBCs): In-vitro method: Hemolysis experiment: The blood from fresh ICR mice was collected by cardiac blood withdrawal, preserved in K2-EDTA tubes (BD Vacultainer® K2 EDTA, Becton-Dickinson) and temporarily stored at 4° C. The whole blood sample was centrifuged (500 g, 10 minutes) to remove plasma, and then washed three times with PBS buffer. After the last washing, 100 μL of the remaining red blood cells (RBCs) were carefully aspirated from the bottom and diluted with 4.9 mL PBS buffer to prepare a 2% blood solution. […] 50 μL of diluted RBCs were mixed with 100 μL of milli-Q H20 (100% hemolysis) or 100 μL of drug-free PBS as positive and negative controls, respectively. It should be noted that rifampicin itself was red, so the absorbance of PBS with different concentrations of the drug was used as background correction in the calculation. The mixture was mixed gently and incubated at 37° C. for 30 minutes. 80 μL of supernatant was obtained by centrifugation at 2000×g for 6 minutes, and the optical density of the supernatant at 541 nm was measured with a microplate reader (SpectraMax 190, Moleclar Devices).

Structure (SMILES) | MIC (14WZ-43) | MIC (14WZ-44) | MIC (14WZ-45) | MIC (14WZ-51) | MIC (14WZ-52) | MIC (15WZ-68) | MIC (15WZ-88) | MIC (16WZ-134) | MIC (16ZR-10) | MIC (16ZR-33) | MIC (16ZR-58) | MIC (16ZR-93) | MIC (17ZR-31) | MIC (17ZR-61) | MIC (17ZR-63) | MIC (17ZR-75) | MIC (CR-HvKP 1 [1]) | MIC (CR-HvKP 2) | MIC (CR-HvKP 3) | MIC (CR-HvKP 5) | further results
Cc1cn([C@H]2C[C@H](N=[N+]=[N-])[C@@H](CO)O2)c(=O)[nH]c1=O [zidovudine] | 2.5 µg/mL (≈ 9.35 µM) | 2.5 µg/mL (≈ 9.35 µM) | 2.5 µg/mL (≈ 9.35 µM) | 2.5 µg/mL (≈ 9.35 µM) | 1.25 µg/mL (≈ 4.68 µM) | 2.5 µg/mL (≈ 9.35 µM) | 2.5 µg/mL (≈ 9.35 µM) | > 20 µg/mL | 0.625 µg/mL (≈ 2.34 µM) | 5 µg/mL (≈ 18.7 µM) | 2.5 µg/mL (≈ 9.35 µM) | > 20 µg/mL | 2.5 µg/mL (≈ 9.35 µM) | 1.25 µg/mL (≈ 4.68 µM) | 1.25 µg/mL (≈ 4.68 µM) | 5 µg/mL (≈ 18.7 µM) | 2.5 µg/mL (≈ 9.35 µM) | 2.5 µg/mL (≈ 9.35 µM) | 2.5 µg/mL (≈ 9.35 µM) | 5 µg/mL (≈ 18.7 µM) | MIC (E. coli ATCC25922): 0.625 µg/mL (≈ 2.34 µM); MIC (K. pneumoniae MGH78578): 5 µg/mL (≈ 18.7 µM); antibacterial effect (E. coli): exhibited antibacterial effect; antibacterial effect (P. aeruginosa): exhibited antibacterial effect; antibacterial effect (K. pneumoniae): exhibited antibacterial effect; Viability (%) (CR-HvKP 1 [2]; ZDV 10 mg/kg + RIF 0 mg/kg): 0%; mortality rate of mice (CR-HvKP 1 [2]; zidovudine 10 mg/kg only, in 36 hours): 100%; MIC (CR-HvKP 1 [3]): 1280 µg/mL (≈ 4790 µM); enthalpy (ΔH) [4]: -80.1 ± 124 kcal/mol; reaction stoichiometry (N sites) [4]: 0.239±0.273; Kd ([4]; one site binding model): 7.8 µM; string length (CR-HvKP 1 [5]): reduce; hypermucoviscosity (CR-HvKP 1 [6]): reduce; expression of bacterial virulence factor rmpA2 (rmpA2): inhibition; population size of CR-HvKP 1 in time-kill curve (CR-HvKP 1 [7]): reduced in the first 4 hours and then re-grew to reach the same size as no treatment control at 24 hours; HepG2 cell lysis (HepG2 cells): low level
CO[C@H]1/C=C/O[C@@]2(C)Oc3c(C)c(O)c4c(O)c(c(/C=N/N5CCN(C)CC5)c(O)c4c3C2=O)NC(=O)/C(C)=C\C=C\[C@H](C)[C@H](O)[C@@H](C)[C@@H](O)[C@@H](C)[C@H](OC(C)=O)[C@@H]1C [rifampicin] | 32 µg/mL (≈ 38.9 µM) | 32 µg/mL (≈ 38.9 µM) | 16 µg/mL (≈ 19.4 µM) | 32 µg/mL (≈ 38.9 µM) | 32 µg/mL (≈ 38.9 µM) | 32 µg/mL (≈ 38.9 µM) | 16 µg/mL (≈ 19.4 µM) | 32 µg/mL (≈ 38.9 µM) | 32 µg/mL (≈ 38.9 µM) | 16 µg/mL (≈ 19.4 µM) | 32 µg/mL (≈ 38.9 µM) | > 64 µg/mL | 32 µg/mL (≈ 38.9 µM) | 32 µg/mL (≈ 38.9 µM) | 32 µg/mL (≈ 38.9 µM) | 64 µg/mL (≈ 77.8 µM) | 32 µg/mL (≈ 38.9 µM) | 32 µg/mL (≈ 38.9 µM) | 32 µg/mL (≈ 38.9 µM) | 32 µg/mL (≈ 38.9 µM) | MIC (E. coli ATCC25922): 8 µg/mL (≈ 9.72 µM); MIC (K. pneumoniae MGH78578): 32 µg/mL (≈ 38.9 µM); Viability (%) (CR-HvKP 1 [2]; ZDV 0 mg/kg + RIF 8 mg/kg): 30%; mortality rate of mice (CR-HvKP 1 [2]; rifampicin 8 mg/kg only, in 72 hours): 66%; MIC (CR-HvKP 1 [3]): 4100 µg/mL (≈ 4980 µM); hemolysis (red blood cells (RBCs)): low level; HepG2 cell lysis (HepG2 cells): low level
